Read-outs that look alike come from different tables or passages of the source.
Experiments:
Assay type in all cases: biochemical
[1] = target: PAK3 (Homo sapiens, UniProt O75914); assay: In vitro PAK inhibition assay (Z'-LYTE, SelectScreen), PAK3
Method: (§1) Compounds are screened in 1% DMSO (final) in the well. For 10 point titrations, 3-fold serial dilutions are conducted. All Peptide/Kinase Mixtures are diluted to a 2× working concentration in the appropriate Kinase Buffer
The 2×PAK3/Ser/Thr 20 mixture is prepared in 50 mM HEPES pH 7.5, 0.01% BRIJ-35, 10 mM MgCl2, 1 mM EGTA.
(§2) 1. Add the following solutions to a well in a 384-well plate: • 2.5 μL of 4× Test Compound OR (100 nL 100× Test Compound plus 2.4 μL kinase buffer) • 5 μL of 2× Peptide/Kinase (PAK) Mixture • 2.5 μL of 4×ATP Solution
(§3) 3. Incubate the PAK Kinase Reaction at room temperature for 60-minutes
(§4) 4. Add 5 μL of Development Reagent Solution to each well
(§5) 6. Incubate the Development Reaction for 60-minutes
(§6) 7. Determine the fluorescence using a fluorescence plate reader
(§7) SelectScreen® Kinase Profiling Service uses XLfit from IDBS.
(§8) The representative IC50 value with a known inhibitor for each kinase was determined at the ATP bin nearest to the ATP Km app.

[2] = target: PAK4 (Homo sapiens, UniProt O96013); assay: In vitro PAK inhibition assay (Z'-LYTE, SelectScreen), PAK4
Method: as §1
The 2×PAK-4/Ser/Thr 20 mixture is prepared in 50 mM HEPES pH 7.5, 0.01% BRIJ-35, 10 mM MgCl2, 1 mM EGTA. The final 10 μL Kinase Reaction consists of 0.1-0.75 ng PAK-4 and 2 μM Ser/Thr 20 in 50 mM HEPES pH 7.5, 0.01% BRIJ-35, 10 mM MgCl2, 1 mM EGTA. After the 1 hour Kinase Reaction incubation, 5 μL of a 1:256 dilution of Development Reagent A is added.
as §2, §3, §4, §5, §6
SelectScreen® Kinase Profiling Service uses XLfit from IDBS. The dose response curve is curve fit to model number 205 (sigmoidal dose-response model).
The table below provides specifications and data around each kinase. The representative IC50 value with a known inhibitor for each kinase was determined at the ATP bin nearest to the ATP Km app.

[3] = target: PAK1 (Homo sapiens, UniProt Q13153); assay: In vitro PAK inhibition assay (Z'-LYTE, SelectScreen), PAK1
Method: as §1
The 2×PAK1/Ser/Thr 19 mixture is prepared in 50 mM HEPES pH 7.5, 0.01% BRIJ-35, 10 mM MgCl2, 1 mM EGTA.
as §2, §3, §4, §5, §6, §7, §8

[4] = target: PAK2 (PAK65) (Homo sapiens, UniProt Q13177); assay: In vitro PAK inhibition assay (Z'-LYTE, SelectScreen), PAK2
Method: as §1
The 2×PAK2 (PAK65)/Ser/Thr 20 mixture is prepared in 50 mM HEPES pH 7.5, 0.01% BRIJ-35, 10 mM MgCl2, 1 mM EGTA. The final 10 μL Kinase Reaction consists of 0.29-6 ng PAK2 (PAK65) and 2 μM Ser/Thr 20 in 50 mM HEPES pH 7.5, 0.01% BRIJ-35, 10 mM MgCl2, 1 mM EGTA.
as §2, §3, §4, §5, §6, §7, §8

Sequence of PAK3 (O75914 1-544 isoform O75914-2): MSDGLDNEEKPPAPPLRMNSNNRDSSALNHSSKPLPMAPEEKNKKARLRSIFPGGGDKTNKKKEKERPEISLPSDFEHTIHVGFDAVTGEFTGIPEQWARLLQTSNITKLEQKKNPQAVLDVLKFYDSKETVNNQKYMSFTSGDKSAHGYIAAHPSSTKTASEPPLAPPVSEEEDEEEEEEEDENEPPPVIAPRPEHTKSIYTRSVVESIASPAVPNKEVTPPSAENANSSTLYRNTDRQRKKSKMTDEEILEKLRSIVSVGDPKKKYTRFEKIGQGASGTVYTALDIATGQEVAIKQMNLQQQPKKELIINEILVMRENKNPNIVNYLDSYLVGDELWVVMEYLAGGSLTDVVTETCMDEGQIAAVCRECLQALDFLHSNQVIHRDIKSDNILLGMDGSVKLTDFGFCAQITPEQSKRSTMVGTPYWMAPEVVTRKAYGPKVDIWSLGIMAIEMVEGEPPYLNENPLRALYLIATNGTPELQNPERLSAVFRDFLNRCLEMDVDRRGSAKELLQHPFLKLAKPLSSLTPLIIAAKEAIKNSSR
Sequence of PAK4 (O96013 whole entry): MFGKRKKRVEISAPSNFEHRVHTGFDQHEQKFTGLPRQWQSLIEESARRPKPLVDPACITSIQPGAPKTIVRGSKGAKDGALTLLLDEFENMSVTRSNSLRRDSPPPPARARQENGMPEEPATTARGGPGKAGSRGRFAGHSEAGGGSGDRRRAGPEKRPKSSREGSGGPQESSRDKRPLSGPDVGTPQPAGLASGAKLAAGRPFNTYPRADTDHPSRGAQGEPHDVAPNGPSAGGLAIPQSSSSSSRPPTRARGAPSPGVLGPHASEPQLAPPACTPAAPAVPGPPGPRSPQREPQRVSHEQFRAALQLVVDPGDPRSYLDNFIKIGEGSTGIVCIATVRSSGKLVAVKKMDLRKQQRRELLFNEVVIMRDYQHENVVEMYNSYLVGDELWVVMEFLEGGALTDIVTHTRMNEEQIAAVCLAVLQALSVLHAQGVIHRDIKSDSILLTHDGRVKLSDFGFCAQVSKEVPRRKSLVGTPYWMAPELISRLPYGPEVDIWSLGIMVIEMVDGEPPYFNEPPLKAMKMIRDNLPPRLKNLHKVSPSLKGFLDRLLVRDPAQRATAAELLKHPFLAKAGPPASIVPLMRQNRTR
Sequence of PAK1 (Q13153 whole entry): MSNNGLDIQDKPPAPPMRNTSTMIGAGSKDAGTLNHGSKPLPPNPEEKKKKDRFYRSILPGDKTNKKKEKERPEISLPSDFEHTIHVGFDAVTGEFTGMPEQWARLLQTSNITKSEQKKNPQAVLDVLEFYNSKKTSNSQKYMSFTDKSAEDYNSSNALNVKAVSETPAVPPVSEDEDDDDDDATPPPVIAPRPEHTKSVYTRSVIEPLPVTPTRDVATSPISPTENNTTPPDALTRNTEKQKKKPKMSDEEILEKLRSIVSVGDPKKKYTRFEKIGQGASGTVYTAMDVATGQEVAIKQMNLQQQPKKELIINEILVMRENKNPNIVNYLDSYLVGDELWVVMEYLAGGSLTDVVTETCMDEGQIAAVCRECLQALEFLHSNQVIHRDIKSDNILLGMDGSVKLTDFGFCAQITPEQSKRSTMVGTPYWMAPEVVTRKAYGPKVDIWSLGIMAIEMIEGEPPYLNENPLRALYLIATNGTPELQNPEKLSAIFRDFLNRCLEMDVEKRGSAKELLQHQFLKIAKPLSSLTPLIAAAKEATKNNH
Sequence of PAK2 (PAK65) (Q13177 whole entry): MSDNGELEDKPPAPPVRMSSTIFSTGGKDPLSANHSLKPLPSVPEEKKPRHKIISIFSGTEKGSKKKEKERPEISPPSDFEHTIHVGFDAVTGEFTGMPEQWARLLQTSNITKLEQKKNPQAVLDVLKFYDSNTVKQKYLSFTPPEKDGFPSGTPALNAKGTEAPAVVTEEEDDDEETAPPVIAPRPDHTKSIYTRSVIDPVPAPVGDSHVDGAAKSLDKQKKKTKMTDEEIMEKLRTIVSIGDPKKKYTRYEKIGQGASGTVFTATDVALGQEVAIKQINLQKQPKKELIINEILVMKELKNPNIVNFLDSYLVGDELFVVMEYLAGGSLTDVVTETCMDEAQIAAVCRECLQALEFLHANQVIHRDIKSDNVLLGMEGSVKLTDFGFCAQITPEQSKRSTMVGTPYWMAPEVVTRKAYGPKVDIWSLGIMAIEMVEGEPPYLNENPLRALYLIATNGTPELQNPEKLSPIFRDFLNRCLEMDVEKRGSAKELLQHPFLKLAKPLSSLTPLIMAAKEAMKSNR

Structure (SMILES)	IC50 ([1]; read-out: PAK3 IC50) [nM]	IC50 [2] [nM]	IC50 ([3]; read-out: PAK1 IC50) [nM]	IC50 ([4]; read-out: PAK2 IC50) [nM]	IC50 ([1]; PAK3 IC50 (nM)) [nM]	IC50 [3] [nM]	IC50 [4] [nM]
CCn1c(=O)c(-c2ccc(-c3nccnc3C)cc2Cl)cc2cnc(NC3CCOC(C)(C)C3)nc21 (racemic) [Example 30]	< 50	> 5000	< 50	< 50	–	–	–
Cc1nccnc1-c1ccc(-c2cc3cnc(N[C@@H]4CCOC4)nc3n(Cc3ccccn3)c2=O)c(Cl)c1 [Example 123]	50 to 500	> 5000	50 to 500	< 50	–	–	–
CCn1c(=O)c(-c2ccc(-c3cccnc3F)cc2Cl)cc2cnc(N[C@H]3CCOC3)nc21 [Example 41]	50 to 500	> 5000	< 50	50 to 500	–	–	–
CCn1c(=O)c(-c2ccc(-c3cncc(C)n3)cc2Cl)cc2cnc(NCC3CCC(N(C)C)CC3)nc21 (stereo not shown) [Example 132]	50 to 500	> 5000	50 to 500	50 to 500	–	–	–
Cc1cncc(-c2ccc(-c3cc4cnc(N[C@H]5CCOC5)nc4n(CCN)c3=O)c(Cl)c2)n1 [Example 100]	50 to 500	> 5000	50 to 500	< 50	–	–	–
Cc1cncc(-c2ccc(-c3cc4cnc(N[C@@H]5CCOC5)nc4n([C@H]4CC[C@H](N)CC4)c3=O)c(Cl)c2)n1 [Example 109]	50 to 500	> 5000	< 50	< 50	–	–	–
Cc1cncc(-c2ccc(-c3cc4cnc(N[C@@H]5CCOC5)nc4n(CCCN(C)C)c3=O)c(Cl)c2)n1 [Example 101]	50 to 500	> 5000	< 50	< 50	–	–	–
CCn1c(=O)c(-c2ccc(-c3nccnc3C)cc2Cl)cc2cnc(NC3CCOC(C)C3)nc21 (stereo not shown) [Example 32]	50 to 500	> 5000	50 to 500	< 50	–	–	–
Cc1nccnc1-c1ccc(-c2cc3cnc(NC4CC4)nc3n([C@H]3CC[C@H](N)CC3)c2=O)c(Cl)c1 [Example 119]	< 50	> 5000	< 50	< 50	–	–	–
Cc1nccnc1-c1ccc(-c2cc3cnc(N[C@H]4CCOC4)nc3n(Cc3ccncc3)c2=O)c(Cl)c1 [Example 126]	50 to 500	> 5000	50 to 500	50 to 500	–	–	–
Cc1cncc(-c2ccc(-c3cc4cnc(NC5CCCCC5)nc4n([C@H]4CC[C@H](N)CC4)c3=O)c(Cl)c2)n1 [Example 114]	50 to 500	> 5000	< 50	< 50	–	–	–
CCn1c(=O)c(-c2ccc(-c3cncc(C)n3)cc2Cl)cc2cnc(N[C@@H]3CCOC3)nc21 [Example 28]	50 to 500	> 5000	< 50	< 50	–	–	–
Cc1nc(-c2ccc(-c3cc4cnc(NC5CCOCC5)nc4n(Cc4ccccc4C(F)(F)F)c3=O)c(Cl)c2)no1 [Example 24]	–	> 5000	–	–	50 to 500	50 to 500	50 to 500
Cc1cncc(-c2ccc(-c3cc4cnc(N[C@H]5CCOC5)nc4n(C4CCN(C)CC4)c3=O)c(Cl)c2)n1 [Example 108]	50 to 500	> 5000	50 to 500	50 to 500	–	–	–
Cc1cncc(-c2ccc(-c3cc4cnc(N[C@@H]5CCOC5)nc4n(C4CCNCC4)c3=O)c(Cl)c2)n1 [Example 105]	50 to 500	> 5000	50 to 500	50 to 500	–	–	–
Cc1nc(-c2ccc(-c3cc4cnc(NC5CCOCC5)nc4[nH]c3=O)c(Cl)c2)no1 [Example 11]	50 to 500	> 5000	50 to 500	50 to 500	–	–	–
CCn1c(=O)c(-c2ccc(-c3noc(C)n3)cc2Cl)cc2cnc(N[C@@H]3CCOC3)nc21 [Example 54]	50 to 500	> 5000	50 to 500	50 to 500	–	–	–
CCn1c(=O)c(-c2ccc(-c3nccnc3C)cc2Cl)cc2cnc(NC3CCN(C)CC3)nc21 [Example 5]	500 to 5000	> 5000	500 to 5000	500 to 5000	–	–	–
Cc1nccnc1-c1ccc(-c2cc3cnc(N[C@H]4CCOC4)nc3n(Cc3ccccn3)c2=O)c(Cl)c1 [Example 125]	50 to 500	> 5000	< 50	< 50	–	–	–
CCn1c(=O)c(-c2ccc(-c3nccnc3C)cc2Cl)cc2cnc(NC3CCOCC3)nc21 [Example 2]	50 to 500	> 5000	50 to 500	50 to 500	–	–	–
Cc1cncc(-c2ccc(-c3cc4cnc(N[C@@H]5CCOC5)nc4n(CCN4CCCC4)c3=O)c(Cl)c2)n1 [Example 104]	500 to 5000	> 5000	50 to 500	50 to 500	–	–	–
CCn1c(=O)c(-c2ccc(-c3cnc(C)cn3)cc2Cl)cc2cnc(N[C@@H]3CCOC3)nc21 [Example 50]	500 to 5000	> 5000	50 to 500	50 to 500	–	–	–
CCn1c(=O)c(-c2ccc(-c3cncc(C)n3)cc2Cl)cc2cnc(N[C@H]3CC[C@@H](N)CC3)nc21 [Example 86]	500 to 5000	> 5000	50 to 500	50 to 500	–	–	–
O=c1c(-c2ccc(-c3cccnc3)cc2Cl)cc2cnc(NC3CCOCC3)nc2n1Cc1ccccc1C(F)(F)F [Example 22]	50 to 500	> 5000	50 to 500	< 50	–	–	–
Cc1cncc(-c2ccc(-c3cc4cnc(NC5CC5)nc4n(CCN)c3=O)c(Cl)c2)n1 [Example 111]	50 to 500	> 5000	50 to 500	50 to 500	–	–	–
Cc1cncc(-c2ccc(-c3cc4cnc(NCC5CC5)nc4n([C@H]4CC[C@H](N)CC4)c3=O)c(Cl)c2)n1 [Example 113]	< 50	500 to 5000	< 50	< 50	–	–	–
CCn1c(=O)c(-c2cc(C)c(-c3noc(C)n3)cc2Cl)cc2cnc(N[C@@H]3CCOC3)nc21 [Example 92]	50 to 500	–	–	–	–	–	–
O=c1c(-c2ccc(-c3ccncn3)cc2Cl)cc2cnc(NC3CCOCC3)nc2n1Cc1ccccc1C(F)(F)F [Example 23]	50 to 500	> 5000	50 to 500	50 to 500	–	–	–
CCn1c(=O)c(-c2ccc(-c3cncc(C)n3)cc2Cl)cc2cnc(NCCOCCN)nc21 [Example 128]	50 to 500	> 5000	50 to 500	50 to 500	–	–	–
CCn1c(=O)c(-c2ccc(-c3cncc(C)n3)cc2Cl)cc2cnc(NCCC3CCN(C)CC3)nc21 [Example 67]	–	> 5000	–	–	50 to 500	–	–

Reference: patent US20130116263A1, “PAK INHIBITORS FOR THE TREATMENT OF CELL PROLIFERATIVE DISORDERS” (AFRAXIS, INC., priority 2011, published 2013)
